Measurements published in US9586963B2 (GENFIT, priority 2011, dated 2017).

Legend:
Rev-Erb alpha [1] = target: T1, Rev-Erb alpha (Homo sapiens, UniProt P20393); experiment: M2H (mammalian two-hybrid) cellular activation assay of Rev-Erb alpha; type: cell-based; conditions: M2H assay, HEK293 cells; for EC50: Gal4-Rev-Erb alpha / VP16-NCoR, luciferase reporter; for Emax: relative to DMSO, at the tested dose, read-out: TOP activation
T1 sequence (P20393 284-614 limits assumed): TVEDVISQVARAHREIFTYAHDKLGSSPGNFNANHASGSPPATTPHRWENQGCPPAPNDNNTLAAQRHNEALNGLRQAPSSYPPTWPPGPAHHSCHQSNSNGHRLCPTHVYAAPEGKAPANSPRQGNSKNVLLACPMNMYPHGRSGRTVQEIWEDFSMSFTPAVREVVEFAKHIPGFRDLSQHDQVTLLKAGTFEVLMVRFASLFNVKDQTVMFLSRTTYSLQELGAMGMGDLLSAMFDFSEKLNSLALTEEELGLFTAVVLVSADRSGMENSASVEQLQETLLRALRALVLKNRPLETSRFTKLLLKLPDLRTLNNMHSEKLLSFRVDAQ
In short: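 Six-point dose-response, 18 h, 37 °C, serum-free, in HEK293 cells carrying a Gal4-RE luciferase reporter with Gal4-Rev-Erb alpha or beta plus VP16-NCoR (corepressor interaction readout). EC50 and TOP activation (%) derived from luminescence across four experiments.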

Rev-Erb alpha [2] = target: T1, Rev-Erb alpha; experiment: TR-FRET (HTRF) assay of Rev-Erb alpha LBD with NCoR peptide ID1; type: biochemical; conditions: cell-free, Rev-Erb alpha LBD His 20 nM, NCoR ID1 30 nM
Procedure: Recombinant histidine-tagged Rev-Erb alpha ligand binding domain (LBD; SEQ ID NO: 1) and NCoR peptide ID1 (SEQ ID NO: 2) were tagged with fluorophores. Histidine-tagged Rev-Erb alpha LBD protein was set up in a one to one ratio of 20 nM of His D2 (Cis Bio International 61HSDLB). The NCoR peptide (ID1) was prepared in-house. We used a concentration of 30 nM NCoR and 10 nM Terbium-labeled streptavidin (Cis Bio International 610SATLB).
The buffer for this assay comprised PBS pH 7.2, NaH2P04 at 4 g/L, Na2HP04 at 27 g/L and NaCl at 9 g/l in deionized water. Before using the buffer in the assay, a mixture comprising 1 mM of DTT, 2 mM of CHAPS, 1 mM of EDTA and 0.1% BSA fatty acid free was added to the appropriate amount of buffer. The protein mixture comprising recombinant Rev-Erb alpha LBD His (20 nM), the NCoR ID1 (30 nM) and their respective fluorophores were added to each well of a 384-well plate in a volume 18 μl. The compounds to analyze were diluted in PBS 10% DMSO and was added in a volume of 2 μL in a well. The final mixture volume was 20 μL and the mixture was allowed equilibrate for 2 hours at room temperature. Fluorescence intensity was then counted on the TECAN Genios Pro as a ratio of the fluorescence measured at 665 nm and that measured at 620 nm obtained in the absence of the compound (buffer only) or with the compound. Four experiments were carried out for each compound.
Each compound has been tested at 6 different concentrations to depict a dose-effect enabling the measure of biochemical parameters such as EC50 and TOP activation (%).
The Homogenous Time Resolved Fluorescence (HTRF) assay allows studying the ability of compounds according to the invention to activate Rev-Erb alpha and thus modulate the interaction with its corepressor. The molecular interactions between these bio-molecules are assessed in a cell-free assay by coupling each partner with a fluorescent label and detecting the level of energy transfer. This energy transfer occurs when the distance between the donor (SA Terbium complex) and the acceptor (D2) is small enough.
The ability of compounds according to the invention of activating Rev-Erb alpha was assessed in the described acellular assay. EC50 and TOP activation were measured.

EC50 (Rev-Erb alpha [1])	EC50 (Rev-Erb alpha [2])	melting point	Emax (Rev-Erb alpha [1])	SMILES
0.1 to 1 µM	0.1 to 1 µM			Clc1nnc2ccc(Oc3cccc(-c4ccccc4)c3)nn12 [Cpd.3-1, 6-(biphenyl-3-yloxy)-3-chloro-[1,2,4]triazolo[4,3-b]pyridazine]
0.1 to 1 µM	< 0.1 µM	148 °C		O=C(c1ccccc1)c1cccc(Oc2ccc3nnc(Cl)n3n2)c1 [Cpd.3-2, (3-(3-chloro-[1,2,4]triazolo[4,3-b]pyridazin-6-yloxy)phenyl)(phenyl)methanone]
0.1 to 1 µM	1.1 to 6 µM	140.2 °C		FC(F)(F)c1nnc2ccc(Oc3cccc(-c4ccccc4)c3)nn12 [Cpd.3-3, 6-(biphenyl-3-yloxy)-3-(trifluoromethyl)-[1,2,4]triazolo[4,3-b]pyridazine]
0.1 to 1 µM	0.1 to 1 µM	94.4 °C		O=C(c1ccccc1)c1cccc(Oc2ccc3nnc(C(F)(F)F)n3n2)c1 [Cpd.3-4, (3-(3-(trifluoromethyl)-[1,2,4]triazolo[4,3-b]pyridazin-6-yloxy)phenyl)(phenyl)methanone]
0.1 to 1 µM	0.1 to 1 µM	115 °C		FC(F)(F)c1nnc2ccc(Oc3cccc(Cc4ccccc4)c3)nn12 [Cpd.3-5, 6-(3-benzylphenoxy)-3-(trifluoromethyl)-[1,2,4]triazolo[4,3-b]pyridazine]
< 0.1 µM	1.1 to 6 µM	163 °C		Clc1nnc2ccc(Oc3ccccc3-c3ccccc3)nn12 [Cpd.4-1, 6-(biphenyl-2-yloxy)-3-chloro-[1,2,4]triazolo[4,3-b]pyridazine]
0.1 to 1 µM	< 0.1 µM	97.3 °C		Fc1cccc(-c2ccccc2Oc2ccc3nnc(Cl)n3n2)c1 [Cpd.4-3, 6-(3′-fluoro-biphenyl-2-yloxy)-3-chloro-[1,2,4]triazolo[4,3-b]pyridazine]
0.1 to 1 µM	0.1 to 1 µM	113.7 °C		Clc1nnc2ccc(Oc3ccccc3Cc3ccccc3)nn12 [Cpd.4-4, 6-(2-benzylphenoxy)-3-chloro-[1,2,4]triazolo[4,3-b]pyridazine]
1 to 6 µM	0.1 to 1 µM	128.8 °C		FC(F)(F)c1nnc2ccc(Oc3ccccc3Cc3ccccc3)nn12 [Cpd.4-5, 6-(2-benzylphenoxy)-3-(trifluoromethyl)-[1,2,4]triazolo[4,3-b]pyridazine]
0.1 to 1 µM	< 0.1 µM	128.1 °C		COc1ccc(-c2ccccc2)c(Oc2ccc3nnc(Cl)n3n2)c1 [Cpd.4-6, 6-(4-methoxy-biphenyl-2-yloxy)-3-chloro-[1,2,4]triazolo[4,3-b]pyridazine]
1 to 6 µM	0.1 to 1 µM			Clc1nnc2ccc(Cc3ccccc3-c3ccccc3)nn12 [Cpd.4-9, 6-(biphenyl-2-ylmethyl)-3-chloro-[1,2,4]triazolo[4,3-b]pyridazine]
> 6 µM		179 to 181 °C	> 130%	Cc1cc2nncn2nc1Oc1cc(C(F)(F)F)ccc1-c1cncnc1 [Cpd.5-44, 7-methyl-6-(2-(pyrimidin-5-yl)-5-(trifluoromethyl)phenoxy)-[1,2,4]triazolo[4,3-b]pyridazine]
> 6 µM		230 to 234 °C	> 130%	Cc1cc(Oc2cc(C(F)(F)F)ccc2-c2cncnc2)nn2cnnc12 [Cpd.5-46, 8-methyl-6-(2-(pyrimidin-5-yl)-5-(trifluoromethyl)phenoxy)-[1,2,4]triazolo[4,3-b]pyridazine]
1 to 6 µM		182 to 184 °C		CCc1nnc2c(C)cc(Oc3cc(C(F)(F)F)ccc3-c3cncnc3)nn12 [Cpd.5-48, 3-ethyl-8-methyl-6-(2-(pyrimidin-5-yl)-5-(trifluoromethyl)phenoxy)-[1,2,4]triazolo[4,3-b]pyridazine]
1 to 6 µM		174 to 176 °C		CCc1nnc2cc(C)c(Oc3cc(C(F)(F)F)ccc3-c3cccnc3)nn12 [Cpd.5-49, 3-ethyl-7-methyl-6-(2-(pyridin-3-yl)-5-(trifluoromethyl)phenoxy)-[1,2,4]triazolo[4,3-b]pyridazine]
> 6 µM		240 °C	> 130%	COc1ncc(-c2ccc(C(F)(F)F)cc2Oc2nn3c(Cl)nnc3c3ccccc23)c(OC)n1 [Cpd.5-54, 3-chloro-6-(2-(2,4-dimethoxypyrimidin-5-yl)-5-(trifluoromethyl)phenoxy)-[1,2,4]triazolo[3,4-a]phthalazine]
1 to 6 µM		170 to 172 °C		COc1ncc(-c2cc(Cl)ccc2Oc2cc(C)c3nnc(Cl)n3n2)cn1 [Cpd.5-55, 3-chloro-6-(4-chloro-2-(2-methoxypyrimidin-5-yl)phenoxy)-8-methyl-[1,2,4]triazolo[4,3-b]pyridazine]
1 to 6 µM		189 to 192 °C		COc1ncc(-c2cc(Cl)ccc2Oc2nn3c(Cl)nnc3cc2C)cn1 [Cpd.5-56, 3-chloro-6-(4-chloro-2-(2-methoxypyrimidin-5-yl)phenoxy)-7-methyl-[1,2,4]triazolo[4,3-b]pyridazine]
0.1 to 1 µM		213 to 215 °C		COc1ncc(-c2cc(Cl)ccc2Oc2nn3c(Cl)nnc3c3ccccc23)cn1 [Cpd.5-57, 3-chloro-6-(4-chloro-2-(2-methoxypyrimidin-5-yl)phenoxy)-[1,2,4]triazolo[3,4-a]phthalazine]
1 to 6 µM		208 to 210 °C		Cc1cc(Oc2ccc(Cl)cc2-c2cncnc2)nn2c(Cl)nnc12 [Cpd.5-58, 3-chloro-6-(4-chloro-2-(pyrimidin-5-yl)phenoxy)-8-methyl-[1,2,4]triazolo[4,3-b]pyridazine]
> 6 µM		224 to 226 °C	> 130%	Cc1cc2nnc(Cl)n2nc1Oc1ccc(Cl)cc1-c1cncnc1 [Cpd.5-59, 3-chloro-6-(4-chloro-2-(pyrimidin-5-yl)phenoxy)-7-methyl-[1,2,4]triazolo[4,3-b]pyridazine]
0.1 to 1 µM		252 to 253 °C		Clc1ccc(Oc2nn3c(Cl)nnc3c3ccccc23)c(-c2cncnc2)c1 [Cpd.5-60, 3-chloro-6-(4-chloro-2-(pyrimidin-5-yl)phenoxy)-[1,2,4]triazolo[3,4-a]phthalazine]
1 to 6 µM		174 to 179 °C		Cc1cc2nnc(C(F)(F)F)n2nc1Oc1cc(C(F)(F)F)ccc1-c1cncnc1 [Cpd.5-61, 7-methyl-6-(2-(pyrimidin-5-yl)-5-(trifluoromethyl)phenoxy)-3-(trifluoromethyl)-[1,2,4]triazolo[4,3-b]pyridazine]
1 to 6 µM		197 to 200 °C		FC(F)(F)c1ccc(-c2cncnc2)c(Oc2nn3c(C(F)(F)F)nnc3c3ccccc23)c1 [Cpd.5-62, 6-(2-(pyrimidin-5-yl)-5-(trifluoromethyl)phenoxy)-3-(trifluoromethyl)-[1,2,4]triazolo[3,4-a]phthalazine]
1 to 6 µM		167 to 172 °C		Cc1cc(Oc2cc(C(F)(F)F)ccc2-c2cncnc2)nn2c(C(F)(F)F)nnc12 [Cpd.5-63, 8-methyl-6-(2-(pyrimidin-5-yl)-5-(trifluoromethyl)phenoxy)-3-(trifluoromethyl)-[1,2,4]triazolo[4,3-b]pyridazine]
1 to 6 µM		220 to 230 °C		FC(F)(F)c1ccc(-c2cncnc2)c(Oc2nn3cnnc3c3ccccc23)c1 [Cpd.5-64, 6-(2-(pyrimidin-5-yl)-5-(trifluoromethyl)phenoxy)-[1,2,4]triazolo[3,4-a]phthalazine]
